One data set has as its target albumin (Homo sapiens, UniProt P02768). The note with it: background art; cited from earlier work.
The subject of data set [1] is BKS.Cg-+Leprdb/+Leprdb/Jc1 mice. Briefly: Blood glucose lowering action of oligosaccharide chain added exendin-4 using db/db mice. In kind it is in vivo. The note with it: for blood glucose lowering action in db/db mice: 9 mmol/10 mL PBS, 10 mL/kg i.p., blood glucose at 30, 60, 120, 240 minutes. On the procedure:
(§1) Blood glucose suppressing activity using db/db mice can be determined by measuring blood glucose after administration of a test compound to diabetic mice. Blood glucose after administration of the test compound is measured over time, and if for example, blood glucose 120 minutes after administration is lower than at the time of administration, blood glucose lowering action can be confirmed. For example, sustainability of blood glucose lowering action can also be determined by measuring blood glucose 300 minutes after administration.
A PBS solution of position 30 Cys-disialooligosaccharide chain added exendin-4 synthesized in Example 1 ([…]/10 mL) was intraperitoneally administered to BKS.Cg-+Leprdb/+Leprdb/Jc1 mice (10 weeks old, male) at an administration dosage of 10 mL/kg. Orbital blood was collected before administration of the compound, as well as 30 minutes, 60 minutes, 120 minutes, and 240 minutes later, and blood glucose was measured using Accu-Chek Aviva (Roche Diagnostics).
Blood glucose lowering action was compared with non-oligosaccharide chain added exendin-4 synthesized in Comparative Example 1.

For data set [2], the system named is C57BL/6JJcl mice. Kind of data set: Oral glucose tolerance test (OGTT) of oligosaccharide chain added exendin-4. The class given is in vivo. The following applies: 0.9 nmol/10 ml PBS, 10 ml/kg i.p., 30 minutes before oral glucose 1 mg/g, fasted C57BL/6JJcl mice, GLP-1 at 9 nmol/10 ml. On the procedure: (§2) Blood glucose suppressing activity by OGTT can be determined by measuring blood glucose elevation suppression when mice are force-fed sugar. For example, first, a test compound is administered to mice fasted overnight, and glucose solution is orally administered 30 minutes later. Blood glucose in mice will rise from the administration of glucose, reach maximum at about 30 minutes after administration, and then slowly decrease. The blood glucose suppressing action of the oligosaccharide, chain added antigenic GLP-1 analogue can be evaluated by measuring blood glucose 30 minutes after administration of glucose, and comparing it to blood glucose when non-oligosaccharide chain added antigenic GLP-1 analogue is administered. […] Orbital blood was collected before administration of glucose, as well as 30 minutes, 60 minutes, and 120 minutes after administration of glucose, and blood glucose was measured using Accu-Chek Aviva (Roche Diagnostics). Similarly, non-oligosaccharide chain added liraglutide was also administered to db/db mice, blood glucose was measured over time, and compared to the action of position 30 Cys-disialooligosaccharide chain added liraglutide.

The next data set concerns balb/c mice. The following applies: mouse, in vivo. The text has this: The effect of glycosylation on the antigenicity of exendin was verified by sensitizing mice with non-oligosaccharide chain added exendin-4 or position 30 Cys-disialooligosaccharide chain added exendin-4, and comparing blood anti-exendin-4 antibody concentrations.
As priming immunization, position 30 Cys-disialooligosaccharide chain added exendin-4 synthesized in Example 1 and non-oligosaccharide chain added exendin-4 (American Peptide Company) were mixed well with Complete Freund's adjuvant (Difco Laboratories) to make emulsions, and intraperitoneally administered to balb/c mice (female, 7 weeks old). […]
Plasma was collected from mice seven days after the boost immunization. The anti-exendin-4 antibody concentration in plasma was measured by Enzyme-Linked immunosorbent assay (ELISA) using commercially available anti-exendin-4 antibody (Antibodyshop) as the standard.
Fifty μg of non-oligosaccharide chain added exendin-4 was added to a 96-well ELISA plate, and incubated at 37° C. for 2 hours. […] The color development reaction was terminated by adding 20% SDS, and absorption at 405 nm was measured. The concentration of anti-exendin-4 antibody was determined using anti-exendin-4 monoclonal antibody as the standard.

In data set [3] the test system is C57BL/6JJcl mice. Briefly: Oral glucose tolerance test (OGTT) of oligosaccharide chain added liraglutide. In kind it is in vivo. The following applies: 9 nmol/10 ml PBS, 10 ml/kg i.p., 30 minutes before oral glucose 1 mg/g, fasted C57BL/6JJcl mice. As for the experimental part:
as §2, with “Diagnostics).” for “Diagnostics). Similarly, non-oligosaccharide chain added liraglutide was also administered to db/db mice, blood glucose was measured over time, and compared to the action of position 30 Cys-disialooligosaccharide chain added liraglutide.”

The test system of data set [4] is BKS.Cg-+Leprdb/+Leprdb/Jc1 mice (db/db mice). Kind of data set: Blood glucose lowering action of oligosaccharide chain added liraglutide using db/db mice. In kind it is in vivo. The following applies: for blood glucose lowering action in db/db mice: 9 nmol/10 mL PBS, 10 mL/kg i.p., blood glucose at 30 to 720 minutes. On the procedure:
as §1, with “administration. […] Orbital blood was collected before administration of the compound, as well as 30 minutes, 60 minutes, 120 minutes, 240 minutes, 480 minutes, and 720 minutes later, and blood glucose was measured using Accu-Chek Aviva (Roche Diagnostics). Similarly, non-oligosaccharide chain added liraglutide was also administered to db/db mice, blood glucose was measured over time, and compared to the action of position 30 Cys-disialooligosaccharide chain added liraglutide.” for “administration.”

Where [5] appears, read: stated with the db/db mice test.
[6] abbreviates: listed as Oligosaccharide chain added exendin-4.
[7] abbreviates: listed as Oligosaccharide chain added liraglutide.
The mark [8] stands for this setting: listed as Position 30 Cys-disialooligosaccharide chain added liraglutide.

Entries after “also recorded” stand apart in the source; their conditions may differ.

Chain of albumin (P02768 25-609): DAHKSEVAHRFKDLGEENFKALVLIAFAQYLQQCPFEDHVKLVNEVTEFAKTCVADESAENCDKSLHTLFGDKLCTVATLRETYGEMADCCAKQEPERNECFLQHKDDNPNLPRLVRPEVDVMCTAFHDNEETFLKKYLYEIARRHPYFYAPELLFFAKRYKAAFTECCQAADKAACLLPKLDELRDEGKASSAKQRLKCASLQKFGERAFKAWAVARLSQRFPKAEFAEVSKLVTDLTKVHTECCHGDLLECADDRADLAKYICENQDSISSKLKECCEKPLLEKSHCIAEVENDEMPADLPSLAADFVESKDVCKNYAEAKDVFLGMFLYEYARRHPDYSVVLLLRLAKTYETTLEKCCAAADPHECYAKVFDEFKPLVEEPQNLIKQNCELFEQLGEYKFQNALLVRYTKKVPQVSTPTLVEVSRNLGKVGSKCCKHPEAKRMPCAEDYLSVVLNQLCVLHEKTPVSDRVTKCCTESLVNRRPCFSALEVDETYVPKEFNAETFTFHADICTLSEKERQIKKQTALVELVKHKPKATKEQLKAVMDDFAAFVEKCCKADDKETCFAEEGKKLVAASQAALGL

As for `CCCCCCCCCCCCCCCC(=O)N[C@@H](CCC(=O)NCCCC[C@H](NC(=O)[C@H](C)NC(=O)[C@H](C)NC(=O)[C@H](CCC(N)=O)NC(=O)CNC(=O)[C@H](CCC(=O)O)NC(=O)[C@H](CC(C)C)NC(=O)[C@H](Cc1ccc(O)cc1)NC(=O)[C@H](CO)NC(=O)[C@H](CO)NC(=O)[C@@H](NC(=O)[C@H](CC(=O)O)NC(=O)[C@H](CO)NC(=O)[C@@H](NC(=O)[C@H](Cc1ccccc1)NC(=O)[C@@H](NC(=O)CNC(=O)[C@H](CCC(=O)O)NC(=O)[C@H](C)NC(=O)[C@@H](N)Cc1cnc[nH]1)[C@@H](C)O)[C@@H](C)O)C(C)C)C(=O)N[C@@H](CCC(=O)O)C(=O)N[C@@H](Cc1ccccc1)C(=O)N[C@H](C(=O)N[C@@H](C)C(=O)N[C@@H](Cc1c[nH]c2ccccc12)C(=O)N[C@@H](CC(C)C)C(=O)N[C@H](C(=O)N[C@@H](CCCNC(=N)N)C(=O)NCC(=O)N[C@@H](CCCNC(=N)N)C(=O)NCC(=O)O)C(C)C)[C@@H](C)CC)C(=O)O` [Liraglutide], the “administered amount that binds to albumin” value at albumin is listed as “about 99%”.
With Exendin-4, in data set [1], the “blood glucose lowering action in db/db mice” value (from here on “blood glucose lowering action”) is “strong blood glucose lowering action 30 minutes after administration”. Moreover, the “duration of blood glucose lowering effect in db/db mice” value in data set [1] (i.p., 10 mL/kg, last sampling 240 minutes) turned out to be 240 min. In data set [1] (setting [5]), the blood stability entry is given as “high blood stability”. In addition, the “blood glucose elevation suppressive action (OGTT)” value in the data set on C57BL/6JJcl mice [2] is “blood glucose elevation suppressive action higher than vehicle (PBS only) and GLP-1”.
“Position 30 Cys-DisialoOligosaccharide Chain Added Exendin-4”: the “plasma anti-exendin-4 antibody concentration / antibody titer compared to non-oligosaccharide chain added exendin-4” value with balb/c mice was “about one-quarter”. The “blood glucose lowering action” value is “string blood glucose lowering action equal to non-oligosaccharide chain added exendin-4” in data set [1] (setting [6]); “blood glucose lowering action and sustainability equal to non-oligosaccharide chain added exendin-4” in data set [1] (listed as Position 30 Cys-disialooligosaccharide chain added exendin-4). Moreover, the “blood glucose elevation suppressive action (OGTT)” value with C57BL/6JJcl mice [2] (setting [6]) is “blood glucose elevation suppressive action equal to non-oligosaccharide chain added exendin-4”.
Turning to “Position 30 Cys-DisialoOligosaccharide Chain Added Liraglutide”, the “blood glucose elevation suppressive action (OGTT)” value in the data set with C57BL/6JJcl mice [3] was “even higher blood glucose elevation suppressive action compared to non-oligosaccharide chain added liraglutide”; in the data set with C57BL/6JJcl mice [3] (setting [7]), “blood glucose elevation suppressive action even higher than non-oligosaccharide chain added liraglutide”; with C57BL/6JJcl mice [3] (setting [8]) it was “blood glucose elevation suppressive action higher than vehicle (PBS only) and GLP-1”. Further, the “blood glucose lowering action” value is “blood glucose lowering action and sustainability equal to non-oligosaccharide chain added liraglutide” in data set [4] (setting [7]); “strong blood glucose lowering action 30 minutes after administration; also recorded: blood glucose lowering action and sustainability equal to non-oligosaccharide, chain added liraglutide” in data set [4] (setting [8]). In data set [4] (i.p., 10 mL/kg, last sampling 720 minutes), the “duration of blood glucose lowering effect in db/db mice” value came to 12 h. Also, the blood stability entry in data set [4] (setting [5]) was “high blood stability”.

The values are drawn from patent US20120264684A1, “Glycosylated Form of Antigenic GLP-1 Analogue” (priority 2009, published 2012).
